The target in assay [1] is Human full-length SHP2 recombinant protein (Homo sapiens (Human), UniProt Q06124). The experiment in a line: Assay of full-length SHP2 phosphatase activity. It counts as biochemical. To be noted: DiFMUP substrate, with activating peptide. The method, then: Example 2 Assay of Full-Length SHP2 Phosphatase Activity
1. Reagents and Materials • Human full-length SHP2 recombinant protein: BPS Bioscience, Cat #79018; • SHP2 substrate DiFMUP (1 mM): BPS Bioscience, Cat #79769; • SHP2 activating peptide (100 μM): BPS Bioscience, Cat #79319-2; • DTT: Merck, Cat #DTT-RO; • 384-well plate: Corning, Cat #3575; • 96-well plate: Thermo Fisher Scientific, Cat #249952; • Instrument: EnVision 2104, PerkinElmer.
2. Preparation of Reaction Solutions
The test compound was dissolved in DMSO and diluted with DMSO to 100.0 μM, and the compound was further 3-fold diluted with DMSO to: 100.00, 33.33, 11.11, 3.70, 1.23, 0.41, 0.14 and 0.05 μM.
3. Experimental Steps • To the corresponding wells of the 384-well plate was added 2.5 μL of 4× test compound or 2.5 μL of 4% DMSO solution, and centrifugation was carried out at 1000 rpm for 30 seconds. • To the test compound well and positive control well was added 2.5 μL of 4× mixed solution of SHP2 enzyme/activating peptide while to the negative control well was added 2.5 μL of 1× enzymatic reaction buffer; centrifugation was carried out at 1000 rpm for 30 seconds and incubation was carried out at room temperature for 30 minutes. • To each well was added 5 μL of 2×DiFMUP substrate to initiate the enzymatic reaction, then the plate was transiently oscillated and centrifuged at 1000 rpm for 30 seconds, and the 384-well plate was sealed with a sealing membrane and incubated at 25° C. on a low-speed shaker (100 rpm) in the dark for 60 minutes. • The fluorescence value (relative fluorescence units, RFU) of each well was detected on EnVision2104 (excitation: 355 nm, emission: 460 nm).
wherein • the RFU of compound well refers to the fluorescence reading at 460 nm of the well containing the test compounds; • the RFU of negative control well refers to the fluorescence reading at 460 nm of the background well containing 1% DMSO and the enzymatic reaction buffer; • the RFU of positive control well refers to the fluorescence reading at 460 nm of the well containing 1% DMSO and the mixed solution of SHP2 enzyme/activating peptide.
(§1) IC50 values were calculated following formula 205: y=A+((B−A)/(1+((C/X)^D))), by using the XL-Fit 5.0 software.

Assay [2] deals with pERK1/2 (Thr202/Tyr204) in Miapaca2 cells. Put plainly: Assay of intracellular pERK1/2 (Thr202/Tyr204) phosphorylation. The format is cell-based. The method, then:
Example 3 Assay of Intracellular pERK1/2 (Thr202/Tyr204) Phosphorylation
1. Reagents and Materials • pERK1/2 (Thr202/Tyr204) HTRF kit: Cisbio, Cat #64ERKPEH; • Cell line: Miapaca2, ATCC, CRL-1420; • OptiPlate™-384-well plate: PerkinElmer, Cat #6007299; • 96-well plate: Corning, Cat #353072; • Instrument: EnVision2104, PerkinElmer.
2. Preparation of Reaction Solutions • The test compound was dissolved in DMSO and diluted with DMSO to 600.0 μM, and the compound was further 3-fold diluted with DMSO to: 600.0, 200.0, 66.7, 22.2, 7.4, 2.5, 0.82 and 0.27 μM. Then 10 μL of the compound at different dilution concentrations was added to 190 μL of a DMEM medium to prepare a 10× test compound, wherein DMSO was at the concentration of 5% (DMSO was at the final concentration of 0.5%). • 1× cell lysis buffer: 4× cell lysis stock solution (provided by the kit) was diluted 4-fold with deionized water, and then 1% 100× blocking stock solution (provided by the kit) was added thereto. • pERK1/2 detection solution (prepared just before use): the pERK1/2 d2 antibody (provided by the kit) and pERK1/2 Cryptate antibody (provided by the kit) were diluted with the detection solution (provided by the kit) at a ratio of 1:1:38.
3. Experimental Steps • Miapaca2 cells were inoculated into a 96-well plate at a density of 10000 cells/well at 90 μL/well and cultured in a cell incubator at 5% CO2 and 37° C. overnight. • 10 μL of 10× test compound was added to the 90 μL cell culture 96-well plate; to the cell positive control well was added 10 μL of 5% DMSO culture solution; and the plate was cultured in a cell incubator at 5% CO2 and 37° C. for 2 hours. • The medium in the 96-well plate was removed; 50 μL of 1× cell lysis buffer was added to each well; the plate was placed in a microplate shaker; and lysis under shaking was carried out at 900 rpm at room temperature for 1 hour. • 16 μL of the lysis buffer in the 96-well plate was taken and transferred to a 384-well plate, and centrifugation was carried out at 1000 rpm for 30 seconds; then 4 μL of pERK1/2 detection solution was added to each well and centrifugation was carried out at 1000 rpm for 30 seconds; and the 384-well plate was sealed with a sealing membrane and incubated at 25° C. on a low-speed shaker (100 rpm) in the dark for 2 hours. • The fluorescence value (relative fluorescence units, RFU) of each well was detected on EnVision2104 (emission 1: 665 nm, emission 2: 615 nm).
wherein • the fluorescence ratio of compound well refers to the fluorescence ratio of the well containing the test compounds; • the fluorescence ratio of negative control well refers to the fluorescence ratio of the background containing the cell lysis buffer and no Miapaca2 cells; • the fluorescence ratio of positive control well refers to the fluorescence ratio of the well containing 0.5% DMSO and Miapaca2 cells.
as §1

[3] abbreviates: Homo sapiens, MIA PaCa-2, 2 h, pERK1/2 (Thr202/Tyr204) HTRF.
The mark [4] stands for this setting: pERK1/2 (Thr202/Tyr204) HTRF, 2 hours.

pIC50: −log10 of the molar value.

Sequence of Human full-length SHP2 recombinant protein (Q06124 whole entry): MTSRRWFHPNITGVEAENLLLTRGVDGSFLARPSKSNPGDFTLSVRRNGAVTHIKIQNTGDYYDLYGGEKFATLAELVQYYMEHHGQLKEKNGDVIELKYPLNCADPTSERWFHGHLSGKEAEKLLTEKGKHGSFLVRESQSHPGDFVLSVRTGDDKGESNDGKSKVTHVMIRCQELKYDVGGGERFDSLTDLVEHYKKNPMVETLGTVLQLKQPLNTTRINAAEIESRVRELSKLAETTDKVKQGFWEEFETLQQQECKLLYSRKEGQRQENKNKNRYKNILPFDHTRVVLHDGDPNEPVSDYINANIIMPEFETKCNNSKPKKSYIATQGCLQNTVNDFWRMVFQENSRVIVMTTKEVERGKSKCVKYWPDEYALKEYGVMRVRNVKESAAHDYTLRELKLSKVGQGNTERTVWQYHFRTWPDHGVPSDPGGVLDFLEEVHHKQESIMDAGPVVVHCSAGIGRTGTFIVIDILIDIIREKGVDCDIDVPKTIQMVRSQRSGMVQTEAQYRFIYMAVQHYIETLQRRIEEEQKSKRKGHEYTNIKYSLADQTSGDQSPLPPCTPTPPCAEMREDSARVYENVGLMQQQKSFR

As to `C#Cc1ccc2c(c1)[C@@H](N)C1(CCN(c3cc(=O)n(-c4cccc(Cl)c4Cl)c(C(F)(F)F)n3)CC1)C2` [Compound 121], the pIC50 in assay [1] and in assay [2] (setting [3]) was below 6.00 each time.

In the case of `CC#Cc1ccc2c(c1)[C@@H](N)C1(CCN(c3cc(=O)n(-c4ccc(F)c(F)c4Cl)c(C)n3)CC1)C2` (atropisomer, axis not shown) [Compound 218], the pIC50 is 6.98 in assay [1] and 6.03 in assay [2] (setting [4]).

Turning to `C#Cc1ccc2c(c1)OC1(CCN(c3nc(C)n(-c4ccc(F)c(F)c4)c(=O)c3C)CC1)[C@@H]2N` [Compound 14], the pIC50 in assay [1] is below 6.00.

For `C#Cc1ccc2c(c1)[C@@H](N)C1(CCN(c3cc(=O)n(-c4ccc(OC)c(Cl)c4Cl)c(C)n3)CC1)C2` [Compound 211], the values for the pIC50 in assay [1] and in assay [2] (setting [3]) were 7.77 and 6.79, respectively.

As for `CNC(=O)C#Cc1ccc2c(c1)[C@@H](N)C1(CCN(c3cc(=O)n(-c4ccc(F)c(F)c4Cl)c(C)n3)CC1)C2` (atropisomer, axis not shown) [Compound 210], the pIC50 is 7.28 in assay [1] and 6.28 in assay [2] (setting [4]).

As for `COCC#Cc1ccc2c(c1)[C@@H](N)C1(CCN(c3cc(=O)n(-c4cccc(Cl)c4Cl)c(C)n3)CC1)C2` [Compound 30], the results for the pIC50 in assay [1] and in assay [2] (setting [3]) were 8.70 and 8.10, respectively.

For `C#Cc1ccc2c(c1)[C@@H](N)C1(CCN(c3cc(=O)n(-c4ccccc4Cl)c(C)n3)CC1)C2` (single isomer, unassigned) [Compound 57], the pIC50 in assay [1] was 7.55; in assay [2] (setting [4]), 6.28.

Turning to `CCNC(=O)C#Cc1ccc2c(c1)[C@@H](N)C1(CCN(c3nc(N)c(Sc4ccnc(N)c4Cl)nc3Cl)CC1)C2` [Compound 224], the pIC50 in assay [1] was 8.05; in assay [2] (setting [3]), 7.70.

`COCC#Cc1ccc2c(c1)[C@@H](N)C1(CCN(c3cc(=O)n(-c4ccc(F)c(Cl)c4Cl)c(C)n3)CC1)C2` (atropisomer, axis not shown) [Compound 124]: the figures for the pIC50 in assay [1] and in assay [2] (setting [4]) were 8.89 and 7.82, respectively.

Take `COCC#Cc1ccc2c(c1)[C@@H](N)C1(CCN(c3cc(=O)n(-c4ccc(C#N)c(O)c4F)c(C)n3)CC1)C2` [Compound 186]: the results for the pIC50 in assay [1] and in assay [2] (setting [3]) were 7.38 and below 6.00, respectively.

`C#Cc1ccc2c(c1)OC1(CCN(c3cc(=O)n(-c4ccc(F)c(F)c4)c(C)n3)CC1)[C@@H]2N` [Compound 13]: the pIC50 in assay [1] was below 6.00.

With `COCC#Cc1ccc2c(c1)[C@@H](N)C1(CCN(c3cc(=O)n(-c4ccc(F)c(OC)c4Cl)c(C)n3)CC1)C2` (atropisomer, axis not shown) [Compound 164], the results for the pIC50 in assay [1] and in assay [2] (setting [4]) were 7.38 and 6.81, respectively.

In the case of `CNC(=O)C#Cc1ccc2c(c1)[C@@H](N)C1(CCN(c3ncc(N4CCCc5ncccc54)nc3C)CC1)C2` [Compound 263], the pIC50 in assay [1] is 8.05; in assay [2] (setting [3]), 6.69.

Take `C#Cc1ccc2c(c1)CC1(CCN(c3cc(=O)n(-c4ccc(Cl)cc4)c(C)n3)CC1)[C@@H]2N` [Compound 22]: in assay [1], the pIC50 is 6.46.

Take `CCOCC#Cc1ccc2c(c1)[C@@H](N)C1(CCN(c3cc(=O)n(-c4cccc(Cl)c4Cl)c(C)n3)CC1)C2` [Compound 115]: the pIC50 is 8.70 in assay [1] and 7.59 in assay [2] (setting [3]).

For `COCC#Cc1ccc2c(c1)[C@@H](N)C1(CCN(c3cc(=O)n(-c4ccc(C#N)cc4Cl)c(C)n3)CC1)C2` [Compound 93], the pIC50 in assay [1] was 7.80; in assay [2] (setting [3]) it was 6.52.

Regarding `COCCSc1ccc2c(c1)[C@@H](N)C1(CCN(c3cc(=O)n(-c4ccc(F)c(OC)c4F)c(C)n3)CC1)C2` [Compound 101], the pIC50 is 7.92 in assay [1] and 7.02 in assay [2] (setting [3]).

Regarding `C#Cc1ccc2c(c1)[C@@H](N)C1(CCN(c3cc(=O)n(-c4ccc(C#N)c(F)c4Cl)c(C)n3)CC1)C2` [Compound 198], the pIC50 in assay [1] is 7.80; in assay [2] (setting [3]) it was 6.72.

For `C#Cc1ccc2c(c1)[C@@H](N)C1(CCN(c3cc(=O)n(-c4ccc(F)c(F)c4Cl)c(C)n3)CC1)C2` [Compound 77], the pIC50 in assay [2] (setting [4]) is 7.25.

`C#Cc1ccc2c(c1)[C@@H](N)C1(CCN(c3cc(=O)n(-c4cc(OC)ccc4Cl)c(C)n3)CC1)C2` [Compound 58]: in assay [2] (setting [4]), the pIC50 is 6.59.

As for `COCC#Cc1ccc2c(c1)[C@@H](N)C1(CCN(c3cc(=O)n(-c4cccc(Cl)c4Cl)c(C(F)(F)F)n3)CC1)C2` [Compound 130], in assay [1], the pIC50 was below 6.00.

For the compound `C#Cc1ccc2c(c1)[C@@H](N)C1(CCN(c3cc(=O)n(-c4cccc(C#N)c4Cl)c(C)n3)CC1)C2` [Compound 267], in assay [2] (setting [4]), the pIC50 is below 6.00.

The compound `Cc1nc(N2CCC3(CC2)Cc2ccc(C#CCN(C)C)cc2[C@H]3N)cc(=O)n1-c1cccc(Cl)c1Cl` [Compound 52] gave a pIC50 in assay [2] (setting [3]) of 7.43.

As to `Cc1nc(N2CCC3(CC2)Cc2ccc(SC4COC4)cc2[C@H]3N)cc(=O)n1-c1cccc(Cl)c1Cl` [Compound 81, (S)-6-(1-amino-6-(oxetan-3-ylthio)-1,3-dihydrospiro[indene-2,4′-piperidin]-1′-yl)-3-(2,3-dichlorophenyl)-2-methylpyrimidin-4(3H)-one], the pIC50 in assay [2] (Homo sapiens, MIA PaCa-2, pERK1/2 (Thr202/Tyr204) HTRF, 2 hours) is 7.05.

For the compound `C#Cc1ccc2c(c1)CC1(CCN(c3cc(=O)n(-c4ccccc4)c(C)n3)CC1)[C@@H]2N` [Compound 23], the pIC50 in assay [1] was 6.12.

Consider `C#Cc1ccc2c(c1)[C@@H](N)C1(CCN(c3cc(=O)n(-c4c(Cl)cccc4Cl)c(C)n3)CC1)C2` [Compound 33], for which, in assay [1], the negative-log IC50 (pIC50) is 6.51.

With `C#Cc1ccc2c(c1)OC1(CCN(c3cc(=O)n(-c4cccc(Cl)c4Cl)c(C)n3)CC1)[C@@H]2N` (atropisomer, axis not shown) [Compound 28], in assay [1], the pIC50 was below 6.00.

`C#Cc1ccc2c(c1)OC1(CCN(c3cc(=O)n(-c4cccc(Cl)c4)c(C)n3)CC1)[C@@H]2N` [Compound 18]: the pIC50 in assay [1] was below 6.00.

On to `C#Cc1ccc2c(c1)OC1(CCN(c3cc(=O)n(-c4ccccc4)c(C)n3)CC1)[C@@H]2N` [Compound 19], for which the pIC50 in assay [1] was below 6.00.

For `C#Cc1ccc2c(c1)CC1(CCN(c3cc(=O)n(-c4ccc(F)c(F)c4)c(C)n3)CC1)[C@@H]2N` [Compound 21], the pIC50 in assay [1] is 6.27.

For the compound `C#Cc1ccc2c(c1)CC1(CCN(c3cc(=O)n(-c4cccc(Cl)c4Cl)c(C)n3)CC1)[C@@H]2N` (atropisomer, axis not shown) [Compound 24], the pIC50 in assay [1] was 6.39.

By pIC50 is commonly meant the negative decadic logarithm of the IC50, by convention in mol/L.

Values taken from patent US20240140931A1, “TRICYCLIC COMPOUNDS AND USES THEREOF” (HUTCHMED LIMITED, priority 2021, published 2024).
